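These data come from cells grown in 96-well plates and exposed to compound for 48 hours at five concentrations. GI50 marks 50% less growth. At the TGI there is no net growth.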
Columns and labels:
Test in all cases: NCI-60 cell line screen, 48 h
[1] = tested on: 786-0 renal
[2] = tested on: A498 renal
[3] = tested on: A549 NSCLC
[4] = tested on: ACHN renal
[5] = tested on: BT-549 breast
[6] = tested on: CAKI-1 renal
[7] = tested on: CCRF-CEM leukemia
[8] = tested on: COLO 205 colon
[9] = tested on: DU-145 prostate
[10] = tested on: EKVX NSCLC
[11] = tested on: HCC-2998 colon
[12] = tested on: HCT-116 colon
[13] = tested on: HCT-15 colon
[14] = tested on: HL-60(TB) leukemia
[15] = tested on: HOP-62 NSCLC
[16] = tested on: HOP-92 NSCLC
[17] = tested on: HS 578T breast
[18] = tested on: HT29 colon
[19] = tested on: IGROV1 ovarian
[20] = tested on: K-562 leukemia
[21] = tested on: KM12 colon
[22] = tested on: LOX IMVI melanoma
[23] = tested on: M14 melanoma
[24] = tested on: MALME-3M melanoma
[25] = tested on: MCF7 breast
[26] = tested on: MDA-MB-231 breast
[27] = tested on: MDA-MB-435
[28] = tested on: MOLT-4 leukemia
[29] = tested on: NCI-H226 lung
[30] = tested on: NCI-H23 lung
[31] = tested on: NCI-H460 lung
[32] = tested on: NCI-H522 lung
[33] = tested on: NCI/ADR-RES ovarian
[34] = tested on: OVCAR-3 ovarian
[35] = tested on: OVCAR-4 ovarian
[36] = tested on: OVCAR-5 ovarian
[37] = tested on: OVCAR-8 ovarian
[38] = tested on: PC-3 prostate
[39] = tested on: RPMI-8226 leukemia
[40] = tested on: RXF 393 renal
[41] = tested on: SF-268 CNS
[42] = tested on: SF-295 CNS
[43] = tested on: SF-539 CNS
[44] = tested on: SK-MEL-2 melanoma
[45] = tested on: SK-MEL-28 melanoma
[46] = tested on: SK-MEL-5 melanoma
[47] = tested on: SK-OV-3 ovarian
[48] = tested on: SN12C renal
[49] = tested on: SNB-19 CNS
[50] = tested on: SNB-75 CNS
[51] = tested on: SR leukemia
[52] = tested on: SW-620 colon
[53] = tested on: T-47D breast
[54] = tested on: TK-10 renal
[55] = tested on: U251 CNS
[56] = tested on: UACC-257 melanoma
[57] = tested on: UACC-62 melanoma
[58] = tested on: UO-31 renal

`C/C(=C(/c1ccc(O)cc1)c1ccc(Cl)cc1)c1ccccc1` was tested, and the GI50 [1] was 558 nM, the TGI [1] was 1560 nM and the GI50 [2] was 1540 nM. The TGI [2] was 5060 nM, the GI50 [3] was 723 nM and the TGI [3] was 2530 nM. It also gave a GI50 [4] of 628 nM, a TGI [4] of 1800 nM and a GI50 [5] of 575 nM. For the same compound, the TGI [5] was 1530 nM, the GI50 [6] was 781 nM and the TGI [6] was 2680 nM. The GI50 [7] was 764 nM, the TGI [7] was 2870 nM and the GI50 [8] was 2440 nM. For the same compound, the TGI [8] was 5960 nM, the GI50 [9] was 719 nM and the TGI [9] was 1910 nM. For the same compound, the GI50 [10] was 698 nM, the TGI [10] was 2120 nM and the GI50 [11] was 612 nM. For the same compound, the TGI [11] was 1510 nM, the GI50 [12] was 543 nM and the TGI [12] was 1270 nM. The GI50 [13] was 639 nM, the TGI [13] was 2060 nM and the GI50 [14] was 646 nM. For the same compound, the TGI [14] was 1710 nM, the GI50 [15] was 546 nM and the TGI [15] was 1370 nM. It also gave a GI50 [16] of 448 nM, a TGI [16] of 1090 nM and a GI50 [17] of 600 nM. For the same compound, the TGI [17] was 1670 nM, the GI50 [18] was 852 nM and the TGI [18] was 3170 nM. The GI50 [19] was 671 nM, the TGI [19] was 2220 nM and the GI50 [20] was 539 nM. The TGI [20] was 2830 nM, the GI50 [21] was 543 nM and the TGI [21] was 1220 nM. For the same compound, the GI50 [22] was 432 nM, the TGI [22] was 788 nM and the GI50 [23] was 654 nM. It also gave a TGI [23] of 1930 nM, a GI50 [24] of 459 nM and a TGI [24] of 1000 nM. For the same compound, the GI50 [25] was 767 nM, the TGI [25] was 2070 nM and the GI50 [26] was 653 nM. For the same compound, the TGI [26] was 1860 nM, the GI50 [27] was 534 nM and the TGI [27] was 1180 nM. For the same compound, the GI50 [28] was 678 nM, the TGI [28] was 2410 nM and the GI50 [29] was 2750 nM. The TGI [29] was 7900 nM, the GI50 [30] was 625 nM and the TGI [30] was 1840 nM. For the same compound, the GI50 [31] was 471 nM, the TGI [31] was 945 nM and the GI50 [32] was 739 nM. The TGI [32] was 2800 nM, the GI50 [33] was 668 nM and the TGI [33] was 1890 nM. The GI50 [34] was 552 nM, the TGI [34] was 1310 nM and the GI50 [35] was 660 nM. It also gave a TGI [35] of 2610 nM, a GI50 [36] of 1170 nM and a TGI [36] of 2670 nM. It also gave a GI50 [37] of 900 nM, a TGI [37] of 3210 nM and a GI50 [38] of 721 nM. It also gave a TGI [38] of 2560 nM, a GI50 [39] of 583 nM and a TGI [39] of 1690 nM. The GI50 [40] was 469 nM, the TGI [40] was 1170 nM and the GI50 [41] was 582 nM. The TGI [41] was 1610 nM, the GI50 [42] was 603 nM and the TGI [42] was 1500 nM. It also gave a GI50 [43] of 545 nM, a TGI [43] of 1250 nM and a GI50 [44] of 659 nM. It also gave a TGI [44] of 1810 nM, a GI50 [45] of 685 nM and a TGI [45] of 2180 nM. The GI50 [46] was 454 nM, the TGI [46] was 849 nM and the GI50 [47] was 1040 nM. For the same compound, the TGI [47] was 3760 nM, the GI50 [48] was 466 nM and the TGI [48] was 977 nM. It also gave a GI50 [49] of 760 nM, a TGI [49] of 2180 nM and a GI50 [50] of 629 nM. The TGI [50] was 1960 nM, the GI50 [51] was 920 nM and the TGI [51] was 7980 nM. It also gave a GI50 [52] of 800 nM, a TGI [52] of 2780 nM and a GI50 [53] of 762 nM. For the same compound, the TGI [53] was 3220 nM, the GI50 [54] was 1720 nM and the TGI [54] was 5000 nM. It also gave a GI50 [55] of 537 nM, a TGI [55] of 1180 nM and a GI50 [56] of 822 nM. The TGI [56] was 2770 nM, the GI50 [57] was 473 nM and the TGI [57] was 1060 nM. For the same compound, the GI50 [58] was 509 nM and the TGI [58] was 1570 nM.

Reference: PubChem BioAssay (NCI)
